In ChEMBL document CHEMBL3991601, “The target landscape of clinical kinase drugs” (Science, 2017):
Calls of active or inactive are those of the source.

How the values were obtained:
[1] = target: T1, Tyrosine--tRNA ligase, cytoplasmic (Homo sapiens, UniProt P54577)
T1 sequence (P54577 whole entry): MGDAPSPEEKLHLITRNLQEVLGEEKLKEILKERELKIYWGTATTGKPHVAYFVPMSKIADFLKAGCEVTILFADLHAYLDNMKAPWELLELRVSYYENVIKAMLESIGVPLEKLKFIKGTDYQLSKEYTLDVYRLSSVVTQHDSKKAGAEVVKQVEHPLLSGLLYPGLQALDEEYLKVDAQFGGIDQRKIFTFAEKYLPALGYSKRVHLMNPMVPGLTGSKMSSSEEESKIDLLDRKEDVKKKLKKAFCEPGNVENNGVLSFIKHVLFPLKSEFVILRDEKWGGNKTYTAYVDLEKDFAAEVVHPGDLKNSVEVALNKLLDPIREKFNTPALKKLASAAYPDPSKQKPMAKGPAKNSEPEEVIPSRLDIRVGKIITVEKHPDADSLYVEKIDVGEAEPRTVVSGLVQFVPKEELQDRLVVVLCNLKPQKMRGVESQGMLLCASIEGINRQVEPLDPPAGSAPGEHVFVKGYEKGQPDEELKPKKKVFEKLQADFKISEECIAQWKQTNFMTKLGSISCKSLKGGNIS

[2] = target: Mitogen-activated protein kinase kinase kinase kinase 4 (Homo sapiens, UniProt O95819)
[3] = target: T2, Serine/threonine-protein kinase NLK (Homo sapiens, UniProt Q9UBE8)
T2 sequence (Q9UBE8 whole entry): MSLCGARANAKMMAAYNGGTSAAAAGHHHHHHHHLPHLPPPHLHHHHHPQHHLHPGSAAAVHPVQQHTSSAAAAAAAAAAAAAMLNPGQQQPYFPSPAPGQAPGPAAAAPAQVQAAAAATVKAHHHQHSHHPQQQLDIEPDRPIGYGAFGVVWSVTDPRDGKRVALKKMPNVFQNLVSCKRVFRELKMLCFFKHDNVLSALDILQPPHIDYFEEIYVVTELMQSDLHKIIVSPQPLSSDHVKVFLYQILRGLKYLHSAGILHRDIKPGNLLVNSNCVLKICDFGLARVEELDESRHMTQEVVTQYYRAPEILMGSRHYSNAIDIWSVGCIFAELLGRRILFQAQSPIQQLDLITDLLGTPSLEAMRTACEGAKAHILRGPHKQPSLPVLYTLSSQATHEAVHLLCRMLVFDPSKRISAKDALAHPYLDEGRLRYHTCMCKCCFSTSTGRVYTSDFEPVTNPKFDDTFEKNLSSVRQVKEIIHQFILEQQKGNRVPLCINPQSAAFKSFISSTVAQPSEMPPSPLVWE

[4] = target: T3, Thyroid hormone receptor-associated protein 3 (Homo sapiens, UniProt Q9Y2W1)
T3 sequence (Q9Y2W1 whole entry): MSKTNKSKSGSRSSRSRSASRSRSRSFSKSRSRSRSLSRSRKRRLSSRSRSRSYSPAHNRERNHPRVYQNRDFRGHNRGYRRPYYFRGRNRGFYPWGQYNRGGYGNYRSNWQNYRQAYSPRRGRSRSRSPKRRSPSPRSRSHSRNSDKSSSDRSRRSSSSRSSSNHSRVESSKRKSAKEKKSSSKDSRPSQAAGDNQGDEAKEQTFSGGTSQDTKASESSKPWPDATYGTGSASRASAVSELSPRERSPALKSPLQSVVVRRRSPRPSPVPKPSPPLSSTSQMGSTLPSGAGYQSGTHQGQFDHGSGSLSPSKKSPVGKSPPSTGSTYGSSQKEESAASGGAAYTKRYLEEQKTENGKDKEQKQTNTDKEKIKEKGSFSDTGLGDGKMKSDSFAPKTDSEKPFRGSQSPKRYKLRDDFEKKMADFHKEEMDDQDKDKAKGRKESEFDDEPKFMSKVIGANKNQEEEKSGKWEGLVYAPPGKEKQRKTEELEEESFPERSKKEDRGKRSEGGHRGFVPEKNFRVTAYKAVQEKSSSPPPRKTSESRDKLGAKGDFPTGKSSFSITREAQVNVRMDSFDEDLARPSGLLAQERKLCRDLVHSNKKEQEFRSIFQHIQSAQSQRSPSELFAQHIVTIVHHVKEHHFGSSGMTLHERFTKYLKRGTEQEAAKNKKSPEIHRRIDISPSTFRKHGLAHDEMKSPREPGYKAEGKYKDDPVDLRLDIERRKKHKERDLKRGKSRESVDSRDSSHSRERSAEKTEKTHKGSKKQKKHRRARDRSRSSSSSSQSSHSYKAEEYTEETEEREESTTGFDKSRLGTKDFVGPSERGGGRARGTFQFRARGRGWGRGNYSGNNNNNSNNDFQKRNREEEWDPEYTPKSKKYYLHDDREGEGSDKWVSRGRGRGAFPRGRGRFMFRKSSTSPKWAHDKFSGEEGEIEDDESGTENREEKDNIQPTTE

[5] = target: T4, Serine/threonine-protein kinase Nek2 (Homo sapiens, UniProt P51955)
T4 sequence (P51955 whole entry): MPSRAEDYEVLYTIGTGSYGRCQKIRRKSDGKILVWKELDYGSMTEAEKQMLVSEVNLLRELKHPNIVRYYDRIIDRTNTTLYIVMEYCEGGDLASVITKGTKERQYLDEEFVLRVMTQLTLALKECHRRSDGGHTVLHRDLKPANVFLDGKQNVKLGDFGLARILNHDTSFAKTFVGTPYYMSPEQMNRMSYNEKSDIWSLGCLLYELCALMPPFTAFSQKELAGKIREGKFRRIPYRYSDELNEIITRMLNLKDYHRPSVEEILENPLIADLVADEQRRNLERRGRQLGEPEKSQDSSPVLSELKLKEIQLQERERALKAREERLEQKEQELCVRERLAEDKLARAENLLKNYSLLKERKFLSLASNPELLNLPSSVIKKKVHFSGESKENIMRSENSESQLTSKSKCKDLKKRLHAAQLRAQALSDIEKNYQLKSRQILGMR

Measured: Kd
Also: in the data inactive means no Kd found up to 30 µM.

Mitogen-activated protein kinase kinase kinase kinase 4, sequence (O95819 whole entry): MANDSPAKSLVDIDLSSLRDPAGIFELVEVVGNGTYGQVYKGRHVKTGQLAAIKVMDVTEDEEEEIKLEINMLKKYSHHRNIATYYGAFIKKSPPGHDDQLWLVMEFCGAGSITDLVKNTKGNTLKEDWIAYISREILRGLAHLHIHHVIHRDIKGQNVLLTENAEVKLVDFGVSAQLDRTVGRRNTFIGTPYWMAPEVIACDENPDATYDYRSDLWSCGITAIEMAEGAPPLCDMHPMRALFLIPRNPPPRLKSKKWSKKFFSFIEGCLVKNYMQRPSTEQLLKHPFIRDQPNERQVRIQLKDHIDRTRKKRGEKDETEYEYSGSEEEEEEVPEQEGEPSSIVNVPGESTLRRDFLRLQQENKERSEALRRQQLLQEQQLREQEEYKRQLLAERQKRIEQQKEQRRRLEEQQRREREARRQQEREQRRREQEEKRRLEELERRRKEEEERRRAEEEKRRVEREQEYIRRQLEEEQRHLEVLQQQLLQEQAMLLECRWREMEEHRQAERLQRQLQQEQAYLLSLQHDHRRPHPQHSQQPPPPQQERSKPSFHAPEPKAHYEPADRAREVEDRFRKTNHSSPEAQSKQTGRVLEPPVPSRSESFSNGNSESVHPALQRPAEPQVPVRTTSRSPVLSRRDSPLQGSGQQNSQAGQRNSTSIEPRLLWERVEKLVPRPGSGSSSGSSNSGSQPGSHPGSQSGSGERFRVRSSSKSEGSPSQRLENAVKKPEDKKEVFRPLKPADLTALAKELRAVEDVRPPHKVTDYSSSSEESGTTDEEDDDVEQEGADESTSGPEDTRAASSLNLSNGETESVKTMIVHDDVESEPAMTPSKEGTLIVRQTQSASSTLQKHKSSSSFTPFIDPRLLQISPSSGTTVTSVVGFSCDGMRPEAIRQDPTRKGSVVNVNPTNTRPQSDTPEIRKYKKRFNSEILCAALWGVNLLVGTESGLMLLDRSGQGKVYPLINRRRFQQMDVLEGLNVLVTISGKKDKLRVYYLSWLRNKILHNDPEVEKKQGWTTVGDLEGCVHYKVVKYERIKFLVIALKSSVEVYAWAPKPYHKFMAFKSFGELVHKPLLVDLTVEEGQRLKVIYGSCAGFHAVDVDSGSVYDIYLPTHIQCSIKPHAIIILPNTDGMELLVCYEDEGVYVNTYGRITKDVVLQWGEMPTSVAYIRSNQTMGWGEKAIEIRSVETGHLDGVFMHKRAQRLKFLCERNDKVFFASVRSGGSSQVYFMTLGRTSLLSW

O=C1NC(=O)[C@@H](c2cn3c4c(cccc24)CCC3)[C@@H]1c1c[nH]c2ccccc12 [TIVANTINIB]
inactive: [1] > 30 µM | [2] > 30 µM | [3] > 30 µM | [4] > 30 µM | [5] > 30 µM

C[C@@H](NC(=O)c1ncnc(N)c1Cl)c1ncc(C(=O)Nc2cc(C(F)(F)F)c(Cl)cn2)s1 [TOVORAFENIB]
inactive: [1] > 30 µM | [2] > 30 µM | [3] > 30 µM | [4] > 30 µM | [5] > 30 µM

Cc1cc(Nc2ncnc3ccc(NC4=NC(C)(C)CO4)cc23)ccc1Oc1ccn2ncnc2c1 [TUCATINIB]
inactive: [1] > 30 µM | [2] > 30 µM | [3] > 30 µM | [4] > 30 µM | [5] > 30 µM

CC(C)c1cc(CNc2nc(Nc3cc(C4CC4)[nH]n3)cc(N3CCN(C)CC3)n2)on1 [XL-228]
inactive: [1] > 30 µM | [2] > 30 µM | [3] > 30 µM | [4] > 30 µM | [5] > 30 µM

CN1C/C=C/CCOc2cccc(c2)-c2ccnc(n2)Nc2cccc(c2)C1 [ZOTIRACICLIB]
inactive: [1] > 30 µM | [2] > 30 µM | [3] > 30 µM | [4] > 30 µM | [5] > 30 µM
